Measurements taken from the supplement of paper PMC10307832.

Columns and labels:
Assay in all cases: relative viability (nuclei count vs DMSO), 5 days (fraction); higher = more cells survive
Mirin + Tozasertib = compound: N=C1NC(=O)/C(=C/c2ccc(O)cc2)S1 [Mirin] + Cc1cc(Nc2cc(N3CCN(C)CC3)nc(Sc3ccc(NC(=O)C4CC4)cc3)n2)n[nH]1 [Tozasertib] (partner 0.1 µM)
How it was run: (§1)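 One day after seeding in 1536-well plates, lung cancer cell lines were dosed by pin tool. Dosing was either single-drug or a fixed anchor-drug dose plus five library-drug doses (not always all listed) in √10 steps. After 5 days, nuclei were stained in one fix-and-stain step and counted on 4× images, and relative viability is the nuclei count of treated wells over that of vehicle wells, given as the median of duplicate plates.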

[1] = compound: CCC1=CN=CN=C1N2CCN(CC2)CC3=NC4=C(N3)C=C(C=C4)C(F)(F)F + Nc1nc2[nH]cc(CCc3ccc(C(=O)N[C@@H](CCC(=O)O)C(=O)O)cc3)c2c(=O)[nH]1 [Pemetrexed] (partner 0.2 µM)
How it was run: as §1

Mirin + Olaparib = compound: N=C1NC(=O)/C(=C/c2ccc(O)cc2)S1 [Mirin] + O=C(c1cc(Cc2n[nH]c(=O)c3ccccc23)ccc1F)N1CCN(C(=O)C2CC2)CC1 [Olaparib] (partner 8 µM)
How it was run: as §1

[2] = compound: CCC1=CN=CN=C1N2CCN(CC2)CC3=NC4=C(N3)C=C(C=C4)C(F)(F)F + O=C(CCCCCCC(=O)Nc1ccccc1)NO [Vorinostat] (partner 1 µM)
How it was run: as §1

Cell Line | relative viability (Mirin + Tozasertib; first compound 0.25 µM) | relative viability (Mirin + Tozasertib; first compound 0.7906 µM) | relative viability (Mirin + Tozasertib; first compound 2.5 µM) | relative viability (Mirin + Tozasertib; first compound 7.906 µM) | relative viability (Mirin + Tozasertib; first compound 25 µM) | relative viability ([1]; first compound 0.04 µM) | relative viability ([1]; first compound 0.1265 µM) | relative viability ([1]; first compound 0.4 µM) | relative viability ([1]; first compound 1.265 µM) | relative viability ([1]; first compound 4 µM) | relative viability (Mirin + Olaparib; first compound 0.25 µM) | relative viability (Mirin + Olaparib; first compound 0.7906 µM) | relative viability (Mirin + Olaparib; first compound 2.5 µM) | relative viability (Mirin + Olaparib; first compound 7.906 µM) | relative viability (Mirin + Olaparib; first compound 25 µM) | relative viability ([2]; first compound 0.04 µM) | relative viability ([2]; first compound 0.1265 µM) | relative viability ([2]; first compound 0.4 µM) | relative viability ([2]; first compound 1.265 µM) | relative viability ([2]; first compound 4 µM)
SW 1573 | 0.181 | 0.195 | 0.234 | 0.188 | 0.108 | 0.884 | 0.947 | 0.83 | 0.747 | 0.885 | 0.481 | 0.408 | 0.46 | 0.37 | 0.271 | 0.623 | 1.08 | 0.756 | 0.575 | 0.734
LOU-NH91 | 0.661 | 0.614 | 0.673 | 0.465 | 0.42 | 0.377 | 0.318 | 0.378 | 0.348 | 0.379 | 0.927 | 0.976 | 0.946 | 0.943 | 1.09 | 0.842 | 0.907 | 0.927 | 0.76 | 0.993
LXF-289 | 0.214 | 0.241 | 0.156 | 0.128 | 0.151 | 0.938 | 0.777 | 0.915 | 0.977 | 0.788 | 1.04 | 1.04 | 1 | 1.04 | 0.975 | 0.933 | 0.735 | 0.718 | 0.742 | 0.789
NCI-H1299 |  |  |  |  |  |  |  |  |  |  | 1.03 | 1.01 | 0.958 | 0.867 | 1.03 |  |  |  |  | 
HARA | 0.126 |  | 0.107 | 0.0865 | 0.0791 | 0.276 | 0.242 | 0.227 | 0.226 | 0.222 | 1.08 |  | 0.735 | 0.874 | 0.495 | 0.542 | 0.492 | 0.57 | 0.556 | 0.466
LU99A | 0.241 | 0.216 | 0.27 | 0.207 | 0.18 | 0.187 | 0.169 | 0.178 | 0.177 | 0.248 | 0.297 | 0.206 | 0.288 | 0.228 | 0.165 | 0.608 | 0.486 | 0.528 | 0.466 | 0.652
201T | 0.929 | 0.982 | 0.88 | 0.881 | 0.599 | 0.274 | 0.312 | 0.297 | 0.322 | 0.375 | 0.877 | 0.888 | 0.886 | 0.902 | 1.03 | 0.923 | 0.889 | 0.819 | 0.817 | 1.06
HCC-827 | 0.412 | 0.39 | 0.421 | 0.384 | 0.426 | 0.268 | 0.221 | 0.276 | 0.242 | 0.278 | 0.627 | 0.704 | 0.647 | 0.626 | 0.623 | 0.895 | 0.856 | 0.788 | 0.781 | 0.744
NCI-H1666 | 0.625 | 0.621 | 0.582 | 0.519 | 0.518 | 0.745 | 0.831 | 0.861 | 0.81 | 0.939 | 0.763 | 0.797 | 0.737 | 0.71 | 0.728 | 1.04 | 1.04 | 0.843 | 0.922 | 0.994
NCI-H1915 | 0.44 |  | 0.413 | 0.35 | 0.289 | 0.537 | 0.511 | 0.529 | 0.479 | 0.498 | 0.283 | 0.221 | 0.272 | 0.223 | 0.182 | 0.591 | 0.51 | 0.496 | 0.492 | 0.559
NCI-H2009 | 0.707 | 0.785 | 0.725 | 0.614 | 0.556 | 0.98 | 1.02 | 0.951 | 0.992 | 1.08 | 0.727 | 0.737 | 0.684 | 0.524 | 0.675 | 0.775 | 0.698 | 0.753 | 0.61 | 0.639
ChaGo-K-1 | 0.234 | 0.222 | 0.241 | 0.215 | 0.171 | 0.253 | 0.261 | 0.275 | 0.258 | 0.262 | 0.415 | 0.363 | 0.43 | 0.381 | 0.253 | 0.792 | 0.75 | 0.712 | 0.648 | 0.824
COR-L 105 | 0.341 | 0.384 | 0.343 | 0.401 | 0.309 | 1.07 | 1.12 | 1.28 | 1.01 | 1.03 | 0.738 | 0.843 | 0.696 | 0.683 | 0.683 | 0.811 | 0.879 | 0.802 | 0.601 | 1.05
NCI-H2170 | 0.709 | 0.747 | 0.713 | 0.652 | 0.504 | 0.265 | 0.266 | 0.291 | 0.256 | 0.263 | 0.582 | 0.548 | 0.576 | 0.597 | 0.601 | 0.787 | 0.731 | 0.778 | 0.724 | 0.815
A549 |  |  |  |  |  |  |  |  |  |  | 0.342 | 0.229 | 0.333 | 0.243 | 0.367 |  |  |  |  | 
NCI-H1975 | 0.697 | 0.84 | 0.799 | 0.664 | 0.585 | 0.318 | 0.295 | 0.298 | 0.298 | 0.276 | 0.892 | 0.83 | 0.819 | 0.855 | 0.715 | 0.796 | 0.703 | 0.704 | 0.654 | 0.687
Calu-6 |  |  |  |  |  |  |  |  |  |  | 0.554 | 0.673 | 0.618 | 0.397 | 0.482 |  |  |  |  | 
NCI-H1648 | 0.444 | 0.608 | 0.506 | 0.466 | 0.251 | 0.614 |  |  | 0.769 | 0.683 | 0.572 |  | 0.955 | 0.639 | 0.764 | 0.684 |  |  | 0.362 | 0.403
NCI-H1623 | 0.448 | 0.429 | 0.423 | 0.436 | 0.377 |  |  |  |  |  |  |  |  |  |  |  |  |  |  | 
